Reference: patent US7939580B2, “Dental composition containing epoxy functional polymerizable compounds” (3M Innovative Properties Company, priority 2004, dated 2011)

What was measured:
[1] = Refractive index (Kruess AR 4 D Abbe refractometer); assay type: physicochemical; settings: 20.0° C., wavelength 589 nm
Description: The refractive index of the halogenated epoxy functional ether derivative was measured with a Kruess AR 4 D device (refractometer according to Abbe's measure principle). The refractive index was measured at 20.0° C. and at a wavelength of 589 nm.

[2] = test system: Salmonella Strains TA98 and TA100; assay: AMES mutagenicity testing protocol (OECD Guideline 471, ISO 10993-3); assay type: cell-based; parameters: key: tested to be non mutagenic
Text: The mutagenicity of the halogenated epoxy functional ether derivative according to the AMES mutagenicity testing protocol has been tested according to OECD Guideline 471 and ISO 10993-3 (2003).

Compound | Refractive Index [1] | Mutagenic [yes/no] [2]
c1cc(OCC2CO2)ccc1Cc1ccc(OCC2CO2)cc1 (stereo not shown) [Reference Compound 3, Bis[4-(2,3-epoxy-propyloxy)-phenyl]-methane, reference compound] | 1.579 | 
1,5-Bis[2-(2,3-epoxy-propyl)-4,6-dichloro-phenyl]-pentane [Example 2] | 1.561 | n^1)
CC(C)(c1cc(Br)c(OCCCC2CO2)c(Br)c1)c1cc(Br)c(OCCCC2CO2)c(Br)c1 (stereo not shown) [Example 5, 2,2-Bis[3,5-dibromo-4-(4,5-epoxy-pentyloxy)-phenyl]-propane] | 1.604 | n^1)
CC(C)(c1ccc(OCCC2CO2)cc1)c1ccc(OCCC2CO2)cc1 (stereo not shown) [Reference Compound 4, 2,2-Bis[4-(3,4-epoxy-butyloxy)-phenyl]-propane, reference compound] | 1.563 | 
C[Si](CCC1CCC2OC2C1)(CCC1CCC2OC2C1)c1ccccc1 (stereo not shown) [Reference Compound 2, Bis[2-(3,4-epoxycyclohexyl)-ethyl]-methyl-phenyl-silane, reference compound] | 1.536 | 
Clc1cccc(CC2CO2)c1OCCC1CO1 (stereo not shown) [Example 6, 4-[2-(2,3-epoxy-propyl)-6-chloro-phenoxy]-1,2-epoxybutane] | 1.535 | 
C[Si]1(CCC2CCC3OC3C2)O[Si](C)(CCC2CCC3OC3C2)O[Si](C)(CCC2CCC3OC3C2)O[Si](C)(CCC2CCC3OC3C2)O1 (stereo not shown) [Reference Compound 1, 1,3,5,7-Tetrakis[2-(3,4-epoxycyclohexyl)-ethyl]-1,3,5,7-tetramethyl-cyclotetrasiloxane, reference compound] | 1.496 | 
CC(C)(c1cc(Cl)c(OCCCC2CO2)c(Cl)c1)c1cc(Cl)c(OCCCC2CO2)c(Cl)c1 (stereo not shown) [Example 3, 2,2-Bis[3,5-dichloro-4-(4,5-epoxy-pentyloxy)-phenyl]-propane] | 1.571 | n^1)
CC(C)(c1ccc(OCCCC2CO2)cc1)c1ccc(OCCCC2CO2)cc1 (stereo not shown) [Reference Compound 5, 2,2-Bis[4-(4,5-epoxy-pentyloxy)-phenyl]-propane, reference compound] | 1.551 | 
1,5-Bis[2-(2,3-epoxy-propyl)-6-chloro-phenyl]-pentane [Example 1] | 1.552 | n^1)
CC(C)(c1cc(Br)c(OCCC2CO2)c(Br)c1)c1cc(Br)c(OCCC2CO2)c(Br)c1 (stereo not shown) [Example 4, 2,2-Bis[3,5-dibromo-4-(3,4-epoxy-butyloxy)-phenyl]-propane] | 1.610 | n^1)
